Measurements published in patent publication US8673890B2, “2,3-dihydro-1H-isoindol-1-imine derivatives useful as thrombin PAR-1 receptor antagonist” (Janssen Pharmaceutica NV, priority 2009, dated 2014).
Several values for one entry are separate records, joined by “and”; a condition that tells them apart may be missing. Equal values may be shown once.

Key:
[1] = system: platelets in platelet-rich plasma; test: Har peptide-induced platelet aggregation in platelet-rich plasma; type: cell-based, human; details: for IC50: multiple values = individual measurements
Protocol: (§1) The procedure for this assay is similar to that described in Biological Example 2, above. Briefly, platelet aggregation studies were performed according to the method of Bednar et al. (Bednar, B., Condra, C., Gould, R. J., and Connolly, T. M., Thromb. Res., 77:453-463 (1995)). Platelet-rich plasma (PRP) concentrates prepared from healthy volunteers who were aspirin free for at least 7 days by venipuncture using EDTA as anticoagulant was purchased from Biological Specialties, Inc. (Colmar, Pa.). PPP (platelet-poor-plasma) was obtained by centrifugation of PRP at Max (3,000 rpms) for 15 min at room temperature. PRP was diluted to yield platelet count of 300×10^3 platelets/μL with PPP. For thrombin induced platelet aggregation: 118 μL of 500 mM GPRP-NH2 was added to 12 mL of 300×10^3 platelets before using (to clean the fibrinogen in the plasma.) GPRP was added just before the experiment. 15 μL of test compound solutions were added to 120 μL of platelets 5 min prior the agonist additions. Platelet aggregation was initiated by the addition of agonist shown to achieve 60-70% aggregation. Antagonist potency was estimated as a % inhibition of the control Har peptide or thrombin response to obtain an IC50.
(§2) Where multiple values are listed for a particular compound, said numbers represent individual measurements (tests) for said compound.

[2] = system: platelets in platelet-rich plasma; test: Thrombin-induced platelet aggregation in platelet-rich plasma; type: cell-based, human; details: for inhibition at 10 µM: 10 μM compound; for IC50: multiple values = individual measurements
Protocol: as §1, §2

[3] = molecular target: T1, thrombin receptor (PAR-1) (Homo sapiens, UniProt P25116); test: FLIPR-based calcium-flux assay with human smooth muscle cells (Har peptide agonist); type: cell-based; details: HSMC; 30 nM Har (PAR1) peptide agonist; 80-min drug incubation; multiple values = individual measurements
T1 construct: Human aortic smooth muscle cells (HSMC) were purchased from Cascade Biologics; host or cells: human aortic smooth muscle cells (HSMC)
T1 sequence (P25116 22-425): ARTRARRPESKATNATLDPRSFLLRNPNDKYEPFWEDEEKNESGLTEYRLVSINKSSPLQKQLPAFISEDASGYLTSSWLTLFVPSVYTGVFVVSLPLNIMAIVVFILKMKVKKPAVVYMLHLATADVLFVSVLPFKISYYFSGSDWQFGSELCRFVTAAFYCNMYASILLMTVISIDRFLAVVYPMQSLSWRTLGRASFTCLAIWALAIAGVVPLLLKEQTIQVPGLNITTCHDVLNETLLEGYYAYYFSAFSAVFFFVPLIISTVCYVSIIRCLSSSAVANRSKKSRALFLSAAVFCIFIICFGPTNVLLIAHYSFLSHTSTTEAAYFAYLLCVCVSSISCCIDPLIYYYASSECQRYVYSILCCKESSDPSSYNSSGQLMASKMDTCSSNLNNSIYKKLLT
Protocol: Human aortic smooth muscle cells (HSMC) were purchased from Cascade Biologics (Portland, Oreg.) and cultured in M-231 containing smooth muscle cell growth supplement and 1× Antibiotic-Antimycotic.
To determine agonist concentration for compound testing: On the day prior to the assay, 100 μL of cells (2×10^5/mL) were seeded in clear, flat-bottom black-wall, tissue culture treated polystyrene 96-well plates and incubated at 37° C., 5% CO2. On the day of the assay, 50 μL of complete dye loading solution (FLIPR Calcium 3 Kit, Molecular Devices) was added to each well containing 100 μL of culture media. The cells were incubated for 30-45 min at 37° C., in 5% CO2 before initiating the assay on the FLIPR. The agonist effect of PAR1 peptide (S-(p-F-Phe)-Har-L-Har-KY-NH2; Har=homoarginine; referred to herein as “Har” peptide) was tested and the EC50 was determined. The EC60-70 dose was used (30 nM) for compound testing.
Compound testing: On the day prior to the assay, 90 μL of cells (2.2×10^5/mL) were seeded in clear, flat-bottom black-wall, tissue culture treated polystyrene 96-well plates and incubated at 37° C., 5% CO2. On the day of the assay, the test compounds were prepared at 10× in 3% DMSO Hanks buffer and 10 μL was added to each well (final DMSO concentration of 0.3%). The cells were incubated 20 min at 37° C., 5% CO2. Culture medium containing testing compounds was dumped and the cells were washed four times with DPBS containing 0.1% of BSA and re-fed with 80 μL of growth medium. 70 μL of BD (fluorescent) dye was loaded to the cells and incubated 45 min at 37° C. incubator. The plates were equilibrated to room temperature for 15 min. 4× PAR1 peptide (30 nM final concentration) agonist plate and the cell plate were placed in FLIPR's assay chamber. 50 μL agonist was added to the cells and data was recorded for 5 min. Raw fluorescence data was exported for each well and tabulated versus time within an ASCII file. Data was then imported into Excel® and the peak response over basal level was determined. The percent inhibition for each test compound was calculated by the changes of fluorescent density as a % inhibition of the control Har peptide response to obtain an IC50.
Representative compounds of the present invention were tested according to the procedure described in Biological Example 1 above, with results in Table 8 below. In Table 8 below, where multiple values are listed for a particular compound, said numbers represent individual measurements (tests) for said compound.

| IC50 ([1]; Homo sapiens, Platelet) [nM] | IC50 [1] | IC50 ([2]; Homo sapiens, Platelet) [nM] | IC50 [3] | IC50 [2] | Compound | inhibition at 10 µM ([2]; Homo sapiens) [%] | inhibition at 10 µM ([1]; Homo sapiens, 10 μM compound) [%] |
| --- | --- | --- | --- | --- | --- | --- | --- |
| 1820 | 1040 nM | 4710 | 0.094 µM and 0.1 µM |  | COc1c(N2CCOCC2)cc(C(=O)CN2Cc3cc4c(cc3C2=N)OCc2ccccc2CO4)cc1C(C)(C)C [Compound 46] | 34 |  |
| 2270 | 2250 nM | 2540 | 0.04 µM and 0.088 µM | 2750 nM | CC(C)(C)c1cc(C(=O)CN2Cc3cc4c(cc3C2=N)OCc2ccccc2CO4)cc(C(C)(C)C)c1O [Compound 47] |  |  |
|  | 2430 nM and > 10000 nM and 11100 nM | > 10000 |  | > 10000 nM | COC(=O)c1ccc2c(c1)COc1cc3c(cc1OC2)CN(CC(=O)c1cc(C(C)(C)C)c(O)c(C(C)(C)C)c1)C3=N [Compound 55] |  |  |
| 290 | 480 nM | 380 | 0.064 µM and 0.044 µM |  | COc1c(N2CCN(C)CC2)cc(C(=O)CN2Cc3cc4c(cc3C2=N)OCc2cccnc2CO4)cc1C(C)(C)C [Compound 71] |  |  |
| > 10000 | > 10000 nM | > 10000 | 0.25 µM and 0.14 µM |  | CC(C)(C)c1cc(C(=O)CN2Cc3cc4c(cc3C2=N)OCc2cc(C(=O)O)ccc2CO4)cc(C(C)(C)C)c1O [Compound 72] |  |  |
| 630 | 490 nM and 830 nM | 1230 | 0.046 µM and 0.074 µM | 1920 nM and 1550 nM | CC(C)(C)c1cc(C(=O)CN2Cc3cc4c(cc3C2=N)OCc2nccnc2CO4)cc(C(C)(C)C)c1O [Compound 77] |  |  |
| > 10000 | 13100 nM | > 10000 | 0.073 µM and 0.16 µM | > 10000 nM | COC(=O)c1ccc2c(c1)COc1cc3c(cc1OC2)C(=N)N(CC(=O)c1cc(C(C)(C)C)c(O)c(C(C)(C)C)c1)C3 [Compound 80] |  |  |
| > 10000 | > 10000 nM | > 10000 | 0.054 µM and 0.082 µM and 0.014 µM | > 10000 nM | CC(C)(C)c1cc(C(=O)CN2Cc3cc4c(cc3C2=N)OCc2ccc(C(=O)O)cc2CO4)cc(C(C)(C)C)c1O [Compound 81] |  |  |
| 640 | 930 nM | 2570 | 0.11 µM and 0.17 µM |  | CC(C)(C)c1cc(C(=O)CN2Cc3cc4c(cc3C2=N)OCc2ncccc2CO4)ccc1O [Compound 82] | 21 |  |
|  | 840 nM and 1750 nM | > 10000 | 0.24 µM and 0.35 µM | > 10000 nM | CC(C)(C)c1cc(C(=O)CN2Cc3cc4c(cc3C2=N)OCc2cccnc2CO4)ccc1O [Compound 83] |  |  |
| 2470 |  | 2510 | 0.029 µM and 0.047 µM and 0.048 µM and 0.011 µM |  | CC(C)(C)c1cc(C(=O)CN2Cc3cc4c(cc3C2=N)OCc2cc([N+](=O)[O-])ccc2CO4)cc(C(C)(C)C)c1O [Compound 84] |  |  |
| 7380 | > 10000 nM | > 10000 | 0.043 µM and 0.02 µM | > 10000 nM | CC(C)(C)c1cc(C(=O)CN2Cc3cc4c(cc3C2=N)OCc2c(F)ccc(F)c2CO4)cc(C(C)(C)C)c1O [Compound 87] |  |  |
| 1630 | 1210 nM | 3550 | 0.091 µM and 0.024 µM | 2660 nM | COc1c(N2CCOCC2)cc(C(=O)CN2Cc3cc4c(cc3C2=N)OCc2c(F)ccc(F)c2CO4)cc1C(C)(C)C [Compound 88] |  |  |
| 1280 | 2310 nM | 4880 | 0.29 µM and 0.13 µM | 4610 nM and 6020 nM | COc1c(N2CCOCC2)cc(C(=O)CN2Cc3cc4c(cc3C2=N)OCc2cc(F)c(F)cc2CO4)cc1C(C)(C)C [Compound 89] |  |  |
| 2560 | 4450 nM | > 10000 | 0.68 µM and 0.2 µM and 0.57 µM |  | COc1c(N2CCOCC2)cc(C(=O)CN2Cc3cc4c(cc3C2=N)OCC(F)(F)C(F)(F)CO4)cc1C(C)(C)C [Compound 90, 1-(3-tert-butyl-4-methoxy-5-morpholinophenyl)-2-(3,3,4,4-tetrafluoro-8-imino-4,5-dihydro-2H-[1,4]-dioxocino[2,3-f]isoindol-9(3H,8H,10H)-yl)ethanone] | 30 |  |
| 12900 |  | > 10000 | 0.39 µM and 0.07 µM and 0.19 µM | > 10000 nM | CC(C)(C)c1cc(C(=O)CN2Cc3cc4c(cc3C2=N)OCC(F)(F)C(F)(F)CO4)cc(C(C)(C)C)c1O [Compound 91] |  | 26 |
